Measurements published in BindingDB's records for doi:10.7270/Q23R0R98 (Johns Hopkins Ion Channel Center, 2010).
Counter-ions that a name gives are not always drawn.

Molecular target: T1, Inward rectifier potassium channel 2 (Mus musculus, UniProt P35561)
T1 sequence (P35561 whole entry): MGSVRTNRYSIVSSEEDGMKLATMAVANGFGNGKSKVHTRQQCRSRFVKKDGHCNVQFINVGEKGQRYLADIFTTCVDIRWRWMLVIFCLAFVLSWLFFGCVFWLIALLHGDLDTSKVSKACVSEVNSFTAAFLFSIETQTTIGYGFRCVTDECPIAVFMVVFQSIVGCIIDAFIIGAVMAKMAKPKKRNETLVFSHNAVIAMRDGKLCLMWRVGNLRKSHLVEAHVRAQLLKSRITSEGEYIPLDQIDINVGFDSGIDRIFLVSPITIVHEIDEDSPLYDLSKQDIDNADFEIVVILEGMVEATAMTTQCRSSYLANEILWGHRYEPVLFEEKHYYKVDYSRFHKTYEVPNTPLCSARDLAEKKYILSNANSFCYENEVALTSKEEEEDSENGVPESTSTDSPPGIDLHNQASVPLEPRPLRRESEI
Experiment: Kir2.1 inward rectifier channel blockers, dose response, mouse Kir2.1 (AID 2594)

Structure (SMILES) | IC50 [µM]
COc1ccc(CNCCc2ccc3c(c2)OCO3)cc1Br [SMR000555601] | 34.7
Cc1ccc2[nH]c(NCc3ccccc3)nc2c1 [MLS000081058] | 33.4
CCCN1CCC(NC23CC4CC(CC(C4)C2)C3)CC1 [N-(1-adamantyl)-1-propyl-4-piperidinamine] | 54.2
CC(C)(C)OC(=O)NCCc1nnc(SCc2ccc(Cl)cc2)o1 [MLS000557943] | 15.8
CC(O)CNCCCOc1cccc(Oc2ccccc2)c1 (stereo not given) [oxalic acid;1-[3-(3-phenoxyphenoxy)propylamino]-2-propanol] | 23.6
O=S(=O)(c1ccc(F)cc1)N1CCCc2ccccc21 [SMR000514216] | 58.5
Clc1ccc(CNC2CCN(Cc3ccccc3)CC2)cc1 [N-[(4-chlorophenyl)methyl]-1-(phenylmethyl)-4-piperidinamine] | 37.7
CCn1c(Sc2ccc(N)cc2Cl)nc2ccccc21 [SMR000078102] | 35.6
CC(NS(=O)(=O)c1ccc(Br)cc1)c1ccccc1 (stereo not given) [SMR000516693] | 25.6
COc1ccc(Nc2ccnc3ccccc23)cc1 [SMR000033695] | 34
Cc1ccc(OCC(O)CNCc2ccc(F)cc2)cc1 (stereo not given) [1-[(4-fluorophenyl)methylamino]-3-(4-methylphenoxy)propan-2-ol] | 24.6
COc1ccc(CNC/C=C/c2ccccc2)cc1 [(E)-N-[(4-methoxyphenyl)methyl]-3-phenyl-prop-2-en-1-amine;hydrochloride] | 22.3
c1ccc(COc2ccc(OCCCNC3CCCC3)cc2)cc1 [MLS000535503] | 33.5
Cc1ccc(Nc2cc(C)nc3c(C)cccc23)cc1 [2,8-dimethyl-N-(4-methylphenyl)quinolin-4-amine] | 43.1
CSc1ccc(S(=O)(=O)NC(C)c2ccccc2)cc1 (stereo not given) [MLS000693878] | 43
CC(NS(=O)(=O)c1ccc(Br)s1)c1ccccc1 (stereo not given) | 19.8
Fc1ccc(N2CCN(Cc3c[nH]c4ccccc34)CC2)cc1 [3-[[4-(4-fluorophenyl)piperazin-1-yl]methyl]-1H-indole] | 30.6
COc1ccc(CNCc2cccc3ccccc23)cc1 | 26.9
CCn1c(COc2ccccc2)nnc1SCc1ccc(C#N)cc1 [4-[[4-ethyl-5-(phenoxymethyl)-1,2,4-triazol-3-yl]sulfanylmethyl]benzonitrile] | 48.3
Cc1ccc(O)c(CNCCNCc2cc(C)ccc2O)c1 [4-methyl-2-[[2-[(5-methyl-2-oxidanyl-phenyl)methylamino]ethylamino]methyl]phenol] | 21.5
